The target of assay [1] is T1, Ca^2+/CaM (Homo sapiens, UniProt P0DP23).
T1 construct: made in house
To be noted: reference not given; earlier FasDD study of the authors: ref [32]; read-out: Kd to Ca^2+/CaM, full-length FasDD; cited from earlier work. An excerpt: We have also shown that both lobes of Ca^2+/CaM are important for FasDD binding. […] Our attempt to identify the interaction regions by ... || To identify the Ca^2+/CaM-binding regions in large proteins is not a simple task. To predict the Ca^2+/CaM-binding site, a web-based tool is often used to provide favorable scores based on multiple criteria including hydropathy, α-helical propensity, hydrophobic residue content, residue charge, residue weight, helical class and occurrence of particular residues.[39] However, this method can still provide biased results.

For assay [2], the target named is T1, Ca^2+/CaM. The assay is described as follows: NMR titration (2D 1H-15N HSQC) of 15N-labeled Ca^2+/CaM with FasDD peptides. The assay is classed as binding. The procedure: (§1) NMR data were collected at 35°C on a Bruker Avance II (700 MHz ^1H) spectrometer equipped with a cryogenic triple-resonance probe, processed with NMRPIPE [35] and analyzed with NMRVIEW [36] or CCPN Analysis. […] For signal assignments of the complexes, ^13C-, ^15N-, or ^13C-/^15N-labeled Ca^2+/CaM at ~400–500 μM was mixed with unlabeled Fas-Pep1 (in 100% DMSO-d6) or Fas-Pep2 at 1.5:1 peptide:Ca^2+/CaM. […] The backbone atom resonances of Ca^2+/CaM complexes with Fas-Pep1 and Fas-Pep2 were assigned using HNCA, HN(CO)CA, HNCACB, HNCO, HN(CO)CACB and ^15N-edited NOESY-HSQC and TOCSY-HSQC experiments. These experiments have been also collected on ^15N-, or ^13C-/^15N-labeled Fas-Pep2 in complex with unlabeled Ca^2+/CaM to confirm the α-helical character of Fas-Pep2 when bound to Ca^2+/CaM. The chemical shifts of Ca^2+/CaM-bound Fas-Pep2 were used to predict its order parameters and secondary structure content in TALOS+.[38] Combined ^1H-^15N chemical shift changes were calculated as ΔδHN = [(ΔδH)^2+(ΔδN/5)^2]^1/2, where ΔδH and ΔδN are the ^1H and ^15N chemical shift changes, respectively. Kd values were calculated by non-linear least-square fitting algorithm in Origin software (OriginLab, Northampton, MA) using the equation: ΔδHN=ΔδHN^max((Kd+L0+P0)−((Kd+L0+P0)^2−4*P0*L0)^0.5)/(2*P0) where ΔδHN^max is the chemical shift change between complex and free protein, L0 total concentration of ligand, and P0 total concentration of protein.
To gain insights into the molecular elements of Ca^2+/CaM–FasDD interaction and to identify the interaction interface, we have utilized NMR chemical shift perturbation (CSP) as detected in ^1H-^15N heteronuclear single quantum coherence (HSQC) spectra. These experiments not only allow for identification of residues involved in binding but can also provide information on the induced conformational changes within proteins. 2D ^1H-^15N HSQC data obtained for a uniformly ^15N-labeled Ca^2+/CaM upon titration with unlabeled Fas-Pep1 are shown in Fig 5. Addition of substoichiometric amounts of Fas-Pep1 (0.5:1 peptide:Ca^2+/CaM) led to a decrease in intensity for a significant number of ^1H-^15N resonances accompanied by appearance of several new signals, consistent with a slow exchange on the NMR scale between the free and bound forms of Ca^2+/CaM. A steady decrease in intensity for the original ^1H-^15N signals and increase in intensity of the new signals was clearly observed with further addition of Fas-Pep1. Spectral changes ceased upon completion of peptide titration at 1.5:1 Fas-Pep1:Ca^2+/CaM ratio when only the new set of signals was present (Fig 5). […]
Only residues 214–227 have been detected in the x-ray structure of Ca^2+/CaM bound to FasDD(214–238); no electron density has been detected for residues 228–238.[40] […]

The target of assay [3] is T1, Ca^2+/CaM. Put plainly: Isothermal titration calorimetry (ITC), Ca^2+/CaM titrated into peptide. Format: binding. To be noted: Ca^2+/CaM 450 μM into 25 μM Fas-Pep1 (25°C) or 195 μM into 17 μM Fas-Pep2 (35°C); 50 mM HEPES (pH 7.0), 100 mM NaCl, 5 mM CaCl2; single set of identical sites; three replicates typically. The protocol:
Thermodynamic parameters of Ca^2+/CaM binding to Fas-Pep1 and Fas-Pep2 peptides were determined using an Auto-iTC200 microcalorimeter (Malvern Instruments). […] Heat of reaction of Ca^2+/CaM was measured over 19 injections at 25°C for Fas-Pep1 or 35°C for Fas-Pep2. Heat of dilution was measured by titrating Ca^2+/CaM into buffer. Data analysis was performed using the Microcal Origin package (ver. 8.1). Baseline corrections were performed by subtracting heat of dilution from the raw Ca^2+/CaM-peptide titration data. Binding curves were analyzed and dissociation constants (Kd) were determined by nonlinear least-square fitting of the baseline-corrected data. The formula used to fit the data as one binding site is: ΔQ(i)=Q(i)+(dVi/Vo)[(Q(i)+Q(i−1))/2]–Q(i–1) where ΔQ(i) is the heat released at i^th injection, Q(i) is the total heat content of the solution, dVi is injection volume, and Vo is total volume. Three replicate titration experiments were typically performed for each peptide.
Although it is recognized that the most frequent mechanism of CaM binding to target proteins involves the hydrophobic surfaces on the N- and C-terminal lobes,[23] electrostatic interactions also contribute to the formation and stabilization of CaM-protein complexes since CaM is acidic and CaM-binding motifs are often basic.[44, 45] The thermodynamic parameters of binding and the relative contribution of hydrophobic vs. electrostatic factors are often assessed by ITC methods, yielding various parameters such as dissociation constant (Kd), stoichiometry (n), enthalpy change (ΔH°) and entropy change (ΔS°). The thermodynamic parameters of Ca^2+/CaM binding to Fas-Pep1 and Fas-Pep2 were assessed by ITC.

For another assay, the target named is T2, Ca^2+/CaM-N (Homo sapiens, UniProt P0DP23).
T2 construct: ^15N-labled samples of the isolated Ca^2+/CaM-N and Ca^2+/CaM-C domains; made in house
Put plainly: NMR titration (2D 1H-15N HSQC) of isolated N-terminal lobe. Format: binding. To be noted: NMR HSQC titration, one-site model, 35°C, 50 mM Tris-d11 (pH 7.0), 100 mM NaCl, 5 mM CaCl2; 15N-Ca^2+/CaM-N 150 μM. The protocol:
as §1, with “The chemical shifts of Ca^2+/CaM-bound Fas-Pep2 were used to predict its order parameters and secondary structure content in TALOS+.[38]” left out, “protein. […]” for “protein.”

The target of a further assay is T3, Ca^2+/CaM-C (Homo sapiens, UniProt P0DP23).
T3 construct: ^15N-labled samples of the isolated Ca^2+/CaM-N and Ca^2+/CaM-C domains; made in house
The assay is described as follows: NMR titration (2D 1H-15N HSQC) of isolated C-terminal lobe. The assay is classed as binding. To be noted: NMR HSQC titration, one-site model, 35°C, 50 mM Tris-d11 (pH 7.0), 100 mM NaCl, 5 mM CaCl2; 15N-Ca^2+/CaM-C 150 μM. The procedure:
as §1, with “The chemical shifts of Ca^2+/CaM-bound Fas-Pep2 were used to predict its order parameters and secondary structure content in TALOS+.[38]” left out, “protein. […]” for “protein.”

Like-named read-outs stand apart in the source and are kept apart here. Where no end group is shown, it is not given here.

Take “FasDD: intracellular death domain of Fas”: the Kd with Ca^2+/CaM [1] is about 2 µM.

As to “MTLSQVKGFVRKNGV [FasDD(224–238), synthetic FasDD peptide spanning residues 224–238; …]”, on Ca^2+/CaM [2] (1H-15N HSQC titration, 15N-Ca^2+/CaM 100 μM, 35°C, pH 7.0), the “binding to Ca^2+/CaM by CSPs” value was “Numerous ^1H-^15N signals exhibited significant CSPs in the HSQC spectra (S7 Fig), indicating direct binding”. The “lobe preference on Ca^2+/CaM” value on Ca^2+/CaM [2] (1H-15N HSQC, 15N-Ca^2+/CaM 100 μM) was “appears to bind to the C-terminal domain of Ca^2+/CaM”. Moreover, the “NMR exchange regime with Ca^2+/CaM” value at Ca^2+/CaM [2] (1H-15N HSQC, 15N-Ca^2+/CaM 100–150 μM, 35°C, pH 7.0) is reported as “fast exchange”.

On to “SDVDLSKYITTIAGVMTLSQVKGFVRKNGVN [Fas-Pep1]”, for which the Kd is 0.3 µM at Ca^2+/CaM [3], about 268 µM on Ca^2+/CaM-N and 76 µM on Ca^2+/CaM-C.

(Values after publication PMC4703387, “Identification of the Calmodulin-Binding Domains of Fas Death Receptor” (PLoS ONE, 2016).)
